The text below walks through data of patent US5013546A, “Methods for modulating antibody production in treating patients with AIDS, ARC and other diseases” (Imreg, Inc., priority 1990, dated 1991).

Assay [1] deals with patients with AIDS or ARC with elevated IgG and IgA. As to the kind of experiment: AIDS/ARC patients, effect of amplifier on serum Ig levels. It counts as in vivo, human. Conditions: 50 pg biweekly, protocol of Example 10. The method, then:
A group of 14 patients with AIDS or ARC were treated biweekly with a standard dosage of IMREG-1 (Beta-1.0), until six doses were given. All 14 initially had elevated IgG production and 13 also had elevated IgA production.
Data was averaged for the 14 high-IgG and 13 high-IgA patients.
A group of patients with AIDS or ARC are treated biweekly with 50 pg of ZB-4, according to the protocol of Example 10.
A group of patients with AIDS or ARC are treated biweekly with 50 pg of Beta-1.11, according to the protocol of Example 10.
A group of patients with AIDS or ARC are treated biweekly with 50 pg of Beta-1.12, according to the protocol of Example 10.

Assay [2] has as its system patient with common variable immunodeficiency, insufficient immunoglobulin production. As to the kind of experiment: Titration of amplifier dosage, patient with common variable immunodeficiency. It counts as in vivo, human. Conditions: 20 to 80 pg intradermal biweekly for eight weeks, 80 kg patient; before 350 ml/dl. The procedure:
A patient suffers from common variable immunodeficiency, and they have an lowered serum immunoglobulin (IgG) level ([…]), indicative to the attending physician of insufficient immunoglobulin production. The physician considers it therapeutically desirable to raise the patient's level of immunoglobulin production.
The patient weighs 80 kg. The physician therefore administers intradermal injections of 20 to 80 pg of ZB-4 (0.25 to 1 pg/kg of body weight) in sterile saline, biweekly, for eight weeks, and then retests. (The appropriate amount is determined by trial and error, and is subject to the physician's discretion. It is believed that 1 pg/kg is an appropriate starting point for such trial and error determination in the case of insufficient Ig production.)

Assay [3] relates to patient with AIDS or ARC, excessive immunoglobulin production. As to the kind of experiment: Titration of amplifier dosage, AIDS or ARC patient with elevated serum IgG. In kind it is in vivo, human. Conditions: 20 to 80 pg intradermal biweekly for eight weeks, 80 kg patient; before greater than 1400 mg/dl. The method, then: A patient suffers from AIDS or ARC, and they have an elevated serum immunoglobulin (IgG) level (greater than 1400 mg/dl), indicative to the attending physician of excessive immunoglobulin production. The physician considers it therapeutically desirable to lower the patient's level of immunoglobulin production.
The physician assays the patient's immunoglobulin response by the protocol of Examples 1-4, or alternative as in Example using ZB-4 (Beta-1.11). The patient weighs 80 kg. The physician therefore administers intradermal injections of 20 to 80 pg of ZB-4 (0.25 to 1 pg/kg of body weight) in sterile saline, biweekly, for eight weeks, and then retests. (The appropriate amount is determined by trial and error, and is subject to the physician's discretion. It is believed that 0.25 pg/kg is an appropriate starting point for such trial and error determination in the case of excessive Ig production.)

Assay [4] has as its system immunoglobulin-producing cells (plaque forming cells) in pokeweed mitogen-exposed PBLs. As to the kind of experiment: RHPFC assay, PWM-stimulated PBLs of a normal subject cultured 6 days with amplifier. In kind it is cell-based, human. The settings on record: averaged data. The method, then:
In order to ascertain whether modulation of B-cell response is appropriate in a particular subject, and to titrate administration of amplifier appropriately for that subject, it is desirable to have a method for assaying the subject's immunoglobulin response. The method described below cultures mitogen-exposed cells in the presence and absence of added amplifier. Then the formation of plaque forming cells (PFCs) is assayed by a reverse hemolytic assay to determine whether and to what extent amplifier modulates formation of PFCs. A dose-dependent amplifier modulation of PFC formation is observed. The PFC assay described hereinafter is a modification of a conventional technique; it is believed that PFC assays have not hitherto been utilized to assess effects of the immunomodulators described herein.
Peripheral blood cell populations (hereinafter PBLs) from test subjects are prepared to isolate mononuclear cells, using conventional methods. The PBLs are adjusted to 10^6 cells/ml in RPM-1640 medium with 25 mM HEPES and L-glutamine (Whittaker Bioproducts), which has been supplemented with 10% heat-inactivated defined fetal bovine serum (Hy-Clone Labs.), 2% PSN Antibiotic (GIBCO Labs., Grand Island, N.Y.) (100×), and 1% extra L-glutamine (GIBCO Labs.) (100×). The resulting PBL mixture is set aside in an ice bucket (4° C.). […]

Assay [5] relates to immunoglobulin-producing cells (plaque forming cells) in PWM-activated PBLs. As to the kind of experiment: Modified RHPFC assay, amplifier added after B cells were potentiated (7th day). In kind it is cell-based, human. The settings on record: amplifier added after potentiation. The procedure: The foregoing protocol 1 was then altered to test the in vitro effect of adding amplifiers Beta-1.0 or Beta-1.11 to the culture after B cells had already been potentiated (differentiated). Therefore, no amplifier was mixed with the PWM-activated cells at the outset, as in Example 1. Instead, at the stage where 1.12% agarose and Protein A-SRBC reagent are added (here, the 7th day), 25 ul of different amplifier dilutions is also added to the various replicates. The protocol was otherwise the same.
The procedure of Example 6 was repeated with the modified protocol just described.

For assay [6] the following is noted: per 1 fg of the peptide; cited from earlier work.

Tyr-Gly [ZB-4]: in assay [1], the “effect on Ig levels” value is on record as “Substantially the same results are observed as were observed in Example 10”. In assay [2], the “serum immunoglobulin level (IgG) after treatment” value came out at 710 mg/dL. Moreover, the “serum immunoglobulin (IgG) level after treatment” value in assay [3] came to 1280 mg/dL. In assay [4] (at 100 to 150 pM), the “maximum PFC factor relative to control” value is on record as “from about half again to double the control PFC factor”. In assay [4] (between 1 and 10 pM), the “minimum PFC factor relative to control” value is “from about a quarter to a half the control PFC factor”. In assay [5], the “concentration at maximum PFC factor” value lay within 300 to 400 pM, the “maximum PFC factor relative to control” value was “slightly less than the control” and the “minimum PFC factor” value is given as “approximately 35 % of the control PFC factor”. In assay [6], the “amount of Beta-1.0 with approximately the same immunological activity as 1 fg” value was 5-10 fg.

Take Tyr-Gly-Gly [Beta-1.12]: the “effect on Ig levels” value in assay [1] is “Substantially the same results are observed as were observed in Example 10”. Further, the “amount of Beta-1.0 with approximately the same immunological activity as 1 fg” value in assay [6] was 5-10 fg.
